Values joined by “and” are separate entries in the source; they are usually repeats but may differ in a detail not shown here. Equal values may be shown once.
These compounds were tested on Rattus norvegicus (assay: Antiinflammatory activity in Wistar rat model of carrageenan-induced paw edema assessed as reduction in thickness of paw edema at 10 mg/kg, ip pretreated for 1 hr followed by carrageenan challenge and measured after 1 hr (reference value: 2.41 +/-0.05 mm)). Conditions: time 1 hr after carrageenan.
Type: functional

Compound	Activity [mm]
COc1cc(/C=C/C(=O)/C=C(O)/C=C/c2ccc(OC(=O)C(C)N)c(OC)c2)ccc1OC(=O)C(C)N.Cl.Cl (stereo not drawn)	1.11

These compounds were tested on Rattus norvegicus (assay: Anti-inflammatory activity in Wistar rat assessed as inhibition of carrageenan-induced paw edema at 10 mg/kg, ip pretreated for 1 hr followed by carrageenan challenge and measured after 1 hr relative to control (reference value: 0.00 +/-0.02 %)). Conditions: time 2 hrs.
Type: functional

Compound	inhibition in vivo at 10 mg/kg [%]
COc1cc(/C=C/C(=O)/C=C(O)/C=C/c2ccc(OC(=O)C(C)N)c(OC)c2)ccc1OC(=O)C(C)N.Cl.Cl (stereo not drawn)	54

What follows are compounds tested on Rattus norvegicus (assay: Antiinflammatory activity in Wistar rat model of carrageenan-induced paw edema assessed as reduction in thickness of paw edema at 10 mg/kg, ip pretreated for 1 hr followed by carrageenan challenge and measured after 2 hrs (reference value: 2.06 +/-0.09 mm)). Conditions: time 3 hrs.
Type: functional

Compound	Activity [mm]
COc1cc(/C=C/C(=O)/C=C(O)/C=C/c2ccc(OC(=O)C(C)N)c(OC)c2)ccc1OC(=O)C(C)N.Cl.Cl (stereo not drawn)	0.94

Each compound was assayed on Rattus norvegicus (assay: Anti-inflammatory activity in Wistar rat assessed as inhibition of carrageenan-induced paw edema at 10 mg/kg, ip pretreated for 1 hr followed by carrageenan challenge and measured after 2 hr relative to control (reference value: 0.00 +/-0.03 %)). Conditions: time 3 hrs.
Type: functional

Compound	inhibition in vivo at 10 mg/kg [%]
COc1cc(/C=C/C(=O)/C=C(O)/C=C/c2ccc(OC(=O)C(C)N)c(OC)c2)ccc1OC(=O)C(C)N.Cl.Cl (stereo not drawn)	54

These compounds were tested on Rattus norvegicus (assay: Antiinflammatory activity in Wistar rat model of carrageenan-induced paw edema assessed as reduction in thickness of paw edema at 10 mg/kg, ip pretreated for 1 hr followed by carrageenan challenge and measured after 3 hrs (reference value: 1.79 +/-0.07 mm)). Conditions: time 4 hrs.
Type: functional

Compound	Activity [mm]
COc1cc(/C=C/C(=O)/C=C(O)/C=C/c2ccc(OC(=O)C(C)N)c(OC)c2)ccc1OC(=O)C(C)N.Cl.Cl (stereo not drawn)	0.81

The compounds below were run on Rattus norvegicus (assay: Anti-inflammatory activity in Wistar rat assessed as inhibition of carrageenan-induced paw edema at 10 mg/kg, ip pretreated for 1 hr followed by carrageenan challenge and measured after 3 hr relative to control (reference value: 0.00 +/-0.1 %)). Conditions: time 4 hrs.
Type: functional

Compound	inhibition in vivo at 10 mg/kg [%]
COc1cc(/C=C/C(=O)/C=C(O)/C=C/c2ccc(OC(=O)C(C)N)c(OC)c2)ccc1OC(=O)C(C)N.Cl.Cl (stereo not drawn)	55

Each compound was assayed on Rattus norvegicus (assay: Antiinflammatory activity in Wistar rat model of carrageenan-induced paw edema assessed as reduction in thickness of paw edema at 10 mg/kg, ip pretreated for 1 hr followed by carrageenan challenge and measured after 4 hrs (reference value: 1.40 +/-0.10 mm)). Conditions: time 5 hrs.
Type: functional

Compound	Activity [mm]
COc1cc(/C=C/C(=O)/C=C(O)/C=C/c2ccc(OC(=O)C(C)N)c(OC)c2)ccc1OC(=O)C(C)N.Cl.Cl (stereo not drawn)	0.22

These compounds were tested on Rattus norvegicus (assay: Anti-inflammatory activity in Wistar rat assessed as inhibition of carrageenan-induced paw edema at 10 mg/kg, ip pretreated for 1 hr followed by carrageenan challenge and measured after 4 hr relative to control (reference value: 0.00 +/-0.4 %)). Conditions: time 5 hrs.
Type: functional

Compound	inhibition in vivo at 10 mg/kg [%]
COc1cc(/C=C/C(=O)/C=C(O)/C=C/c2ccc(OC(=O)C(C)N)c(OC)c2)ccc1OC(=O)C(C)N.Cl.Cl (stereo not drawn)	84

These compounds were tested on Rattus norvegicus (assay: Antiinflammatory activity in Wistar rat model of carrageenan-induced paw edema assessed as reduction in thickness of paw edema at 10 mg/kg, ip pretreated for 1 hr followed by carrageenan challenge and measured after 24 hrs (reference value: 0.83 +/-0.08 mm)). Conditions: time 25 hrs.
Type: functional

Compound	Activity [mm]
COc1cc(/C=C/C(=O)/C=C(O)/C=C/c2ccc(OC(=O)C(C)N)c(OC)c2)ccc1OC(=O)C(C)N.Cl.Cl (stereo not drawn)	0.6

What follows are compounds tested on Rattus norvegicus (assay: Anti-inflammatory activity in Wistar rat assessed as inhibition of carrageenan-induced paw edema at 10 mg/kg, ip pretreated for 1 hr followed by carrageenan challenge and measured after 24 hr relative to control (reference value: 0.00 +/-0.3 %)). Conditions: time 25 hrs.
Type: functional

Compound	inhibition in vivo at 10 mg/kg [%]
COc1cc(/C=C/C(=O)/C=C(O)/C=C/c2ccc(OC(=O)C(C)N)c(OC)c2)ccc1OC(=O)C(C)N.Cl.Cl (stereo not drawn)	28

What follows are compounds tested on Rattus norvegicus (assay: Anti-inflammatory activity in Wistar rat assessed as inhibition of carrageenan-induced paw edema at 10 mg/kg, ip pretreated for 1 hr followed by carrageenan challenge and measured after 4 hr relative to indomethacin). Conditions: time 5 hrs.
Type: functional

Compound	inhibition in vivo at 10 mg/kg [%]
COc1cc(/C=C/C(=O)/C=C(O)/C=C/c2ccc(OC(=O)C(C)N)c(OC)c2)ccc1OC(=O)C(C)N.Cl.Cl (stereo not drawn)	97

The compounds below were run on Splenocyte (assay: Immunomodulatory activity in Swiss albino mouse splenocytes assessed as cell viability at 10 uM by measuring stimulation index incubated for 72 hrs in presence of mitogenic stimulus phytohaemagglutinin by MTT assay (reference value: 1.00 +/- 0.24)). Conditions: not given.
Type: functional

Compound	Activity_index
COc1cc(/C=C/C(=O)/C=C(O)/C=C/c2ccc(OC(=O)C(C)N)c(OC)c2)ccc1OC(=O)C(C)N.Cl.Cl (stereo not drawn)	1.91

These compounds were tested on Splenocyte (assay: Immunomodulatory activity in Swiss albino mouse splenocytes assessed as cell viability at 10 uM by measuring inhibition of stimulation index incubated for 72 hrs in presence of mitogenic stimulus phytohaemagglutinin by MTT assay relative to indomethacin). Conditions: read-out: Activity.
Type: functional

Compound	viability at 10 µM [%]
COc1cc(/C=C/C(=O)/C=C(O)/C=C/c2ccc(OC(=O)C(C)N)c(OC)c2)ccc1OC(=O)C(C)N.Cl.Cl (stereo not drawn)	63.2

What follows are compounds tested on Peritoneal macrophage (assay: Antiinflammatory activity in […] mouse Peritoneal macrophages assessed as reduction in LPS-induced NO production by measuring reduction in stimulation index at 10 uM preincubated for 1 hr followed by LPS stimulation measured after 24 hrs by Griess method (reference value: 27.31 +/- 2.56 uM)). Conditions: time 25 hrs.
Type: functional

Compound	Activity [µM]
COc1cc(/C=C/C(=O)/C=C(O)/C=C/c2ccc(OC(=O)C(C)N)c(OC)c2)ccc1OC(=O)C(C)N.Cl.Cl (stereo not drawn)	19.75

What follows are compounds tested on Peritoneal macrophage (assay: Antiinflammatory activity in […] mouse Peritoneal macrophages assessed as inhibition of LPS-induced NO production at 10 uM preincubated for 1 hr followed by LPS stimulation measured after 24 hrs by Griess method relative to control (reference value: 0.0 %)). Conditions: time 25 hrs.
Type: functional
Set-up: scale not given: the % may be the effect or the level left

Compound	Activity [%]
COc1cc(/C=C/C(=O)/C=C(O)/C=C/c2ccc(OC(=O)C(C)N)c(OC)c2)ccc1OC(=O)C(C)N.Cl.Cl (stereo not drawn)	27.69

Each compound was assayed on Staphylococcus aureus (assay: Antibacterial activity against Staphylococcus aureus ATCC 25923 incubated for 18 hrs by agar dilution method). Conditions: not given.
Type: functional

MIC	Compound
0.125 µg/mL and 0.214 µM	COc1cc(/C=C/C(=O)/C=C(O)/C=C/c2ccc(OC(=O)C(C)N)c(OC)c2)ccc1OC(=O)C(C)N.Cl.Cl (stereo not drawn)

Each compound was assayed on Streptococcus pyogenes (assay: Antibacterial activity against Streptococcus pyogenes ATCC 19615 incubated for 18 hrs by agar dilution method). Conditions: not given.
Type: functional

MIC	Compound
0.25 µg/mL and 0.428 µM	COc1cc(/C=C/C(=O)/C=C(O)/C=C/c2ccc(OC(=O)C(C)N)c(OC)c2)ccc1OC(=O)C(C)N.Cl.Cl (stereo not drawn)

Each compound was assayed on Salmonella typhimurium (assay: Antibacterial activity against Salmonella typhimurium ATCC 19430 incubated for 18 hrs by agar dilution assay). Conditions: Salmonella enterica.
Type: functional, Salmonella enterica subsp. enterica serovar Typhimurium

MIC	Compound
0.25 µg/mL and 0.428 µM	COc1cc(/C=C/C(=O)/C=C(O)/C=C/c2ccc(OC(=O)C(C)N)c(OC)c2)ccc1OC(=O)C(C)N.Cl.Cl (stereo not drawn)

The compounds below were run on Pseudomonas aeruginosa (assay: Antibacterial activity against Pseudomonas aeruginosa ATCC 27853 incubated for 18 hrs by agar dilution assay). Conditions: not given.
Type: functional

MIC	Compound
0.5 µg/mL and 0.857 µM	COc1cc(/C=C/C(=O)/C=C(O)/C=C/c2ccc(OC(=O)C(C)N)c(OC)c2)ccc1OC(=O)C(C)N.Cl.Cl (stereo not drawn)

These compounds were tested on Candida albicans (assay: Antifungal activity against Candida albicans incubated for 18 to 24 hrs by CLSI method). Conditions: time 18-24 hrs.
Type: functional

MIC	Compound
1 µg/mL and 1.71 µM	COc1cc(/C=C/C(=O)/C=C(O)/C=C/c2ccc(OC(=O)C(C)N)c(OC)c2)ccc1OC(=O)C(C)N.Cl.Cl (stereo not drawn)

The compounds below were run on A549 (assay: Antiproliferative activity against human A549 cells assessed as inhibition of cell growth after 72 hrs by MTT assay). Conditions: A549, 72 h.
Type: functional, cell-based

IC50 [µM]	Compound
22.2	COc1cc(/C=C/C(=O)/C=C(O)/C=C/c2ccc(OC(=O)C(C)N)c(OC)c2)ccc1OC(=O)C(C)N.Cl.Cl (stereo not drawn)

These compounds were tested on MCF7 (assay: Antiproliferative activity against human MCF7 cells assessed as inhibition of cell growth after 72 hrs by MTT assay). Conditions: MCF7, 72 h.
Type: functional, cell-based

IC50 [µM]	Compound
9.79	COc1cc(/C=C/C(=O)/C=C(O)/C=C/c2ccc(OC(=O)C(C)N)c(OC)c2)ccc1OC(=O)C(C)N.Cl.Cl (stereo not drawn)

What follows are compounds tested on PC-3 (assay: Antiproliferative activity against human PC3 cells assessed as inhibition of cell growth after 72 hrs by MTT assay). Conditions: PC-3, 72 h.
Type: functional, cell-based

IC50 [µM]	Compound
21.7	COc1cc(/C=C/C(=O)/C=C(O)/C=C/c2ccc(OC(=O)C(C)N)c(OC)c2)ccc1OC(=O)C(C)N.Cl.Cl (stereo not drawn)
